Data: US9056110B2, “Substituted pyrimidinone-phenyl-pyrimidinyl compounds” (Confluence Life Sciences, Inc., priority 2011, dated 2015)

How the values were obtained:
TNFα = assay: LPS stimulated TNFα production in human PBMCs (ELISA); assay type: cell-based; details: PBMC, LPS 0.1 μg/ml, 18-24 hours, read-out: PBMC Cell, TNFα IC50
Protocol: Evaluation of the potency and efficacy of p38 inhibitors to block cytokine production is carried out using the human U937 cell line and purified human PBMCs (peripheral blood mononuclear cells). The U937 human pre-monocytic cell line is obtained from the American Type Culture Collection (Rockville, Md.). These cells are differentiated to a monocytic/macrophage phenotype as described by Burnette (Burnette et al., (2009). SD0006: a potent, selective and orally available inhibitor of p38 kinase, Pharmacology 84(1):42-60). Differentiated U937 cells are seeded into 96-well tissue culture plates (200,000 cells/well) in complete media. After 24 hours, the cells are pretreated for 60 minutes in the presence or absence of compound and then stimulated with LPS (lipopolysaccharide) (0.1 μg/mL) for 4 hours. Culture media are then collected for determination of TNFα or IL-6 levels by ELISA. Human PBMCs are isolated from leukopacks as described by Burnette (Burnette et al., (2009), op. cit.). The cells are seeded into 96-well tissue culture plates (200,000 cells/well) in complete media. After a one hour recovery period at 37° C., 5% CO2, the cells are pretreated for 60 minutes in the presence or absence of compound and then stimulated with LPS (0.1 μg/ml) for 18-24 hours. Culture media are then collected for determination of TNFα and IL1β by ELISA. Cytokine concentrations are extrapolated from recombinant protein standard curves using a four-parameter logistic model and solving for IC50 after iterating to the best least-squares fit. p38 inhibitors will show a dose dependent inhibition of LPS stimulated TNFα, and IL6 in differentiated U937 cells and a dose dependent inhibition of LPS stimulated TNFα, IL6 and IL1b in human PBMCs. As drugs that down-regulate TNFα, IL6 and IL1b are efficacious in a number of autoimmune, autoinflammatory inflammatory, cardiovascular and oncological diseases, it would be expected that p38 drugs that inhibit these cytokines and other enzymes and mediators of disease will be effective drugs. Species compounds of Formula (I), described hereinabove, evaluated in this assay, are expected to provide a therapeutic benefit in the treatment of p38 kinase mediated diseases, including lymphoma and inflammation.

p38α/MK2 = p38α/MK2 (Homo sapiens, UniProt Q16539); assay: p38α/MK2 cascade assay (IMAP, Hsp27 peptide phosphorylation); assay type: biochemical; details: for IC50: p38α/MK2 cascade, Hsp27 peptide 1 μM, MgATP 10 μM, 120 minutes, read-out: p38/MK2 IC50; for Selectivity Ratio: ratio of p38α/PRAK:p38α/MK2 IC50 values
Sequence of p38α/MK2 (Q16539 whole entry): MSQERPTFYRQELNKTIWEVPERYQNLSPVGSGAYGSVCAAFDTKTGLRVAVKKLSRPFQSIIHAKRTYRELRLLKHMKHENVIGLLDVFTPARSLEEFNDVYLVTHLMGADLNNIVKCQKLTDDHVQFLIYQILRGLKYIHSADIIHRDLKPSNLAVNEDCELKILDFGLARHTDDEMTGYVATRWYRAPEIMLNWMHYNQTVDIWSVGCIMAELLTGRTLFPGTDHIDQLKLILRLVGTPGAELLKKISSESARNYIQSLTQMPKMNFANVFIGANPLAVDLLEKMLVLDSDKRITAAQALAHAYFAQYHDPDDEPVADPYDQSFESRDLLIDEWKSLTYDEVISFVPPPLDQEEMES
Sequence of p38α/MK2 (P49137 whole entry partner): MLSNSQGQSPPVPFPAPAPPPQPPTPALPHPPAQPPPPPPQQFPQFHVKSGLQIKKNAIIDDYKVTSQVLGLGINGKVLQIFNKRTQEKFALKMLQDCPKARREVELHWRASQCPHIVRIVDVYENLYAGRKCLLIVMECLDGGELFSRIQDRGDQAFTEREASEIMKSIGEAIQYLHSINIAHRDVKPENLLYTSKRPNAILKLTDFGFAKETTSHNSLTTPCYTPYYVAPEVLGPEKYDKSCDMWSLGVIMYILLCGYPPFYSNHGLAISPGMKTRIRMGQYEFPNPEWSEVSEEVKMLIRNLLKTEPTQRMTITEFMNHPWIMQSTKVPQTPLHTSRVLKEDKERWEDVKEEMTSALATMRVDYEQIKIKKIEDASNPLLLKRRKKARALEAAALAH
Protocol: (§1) P38 inhibitory potency and P38/MK2 substrate selectivity: The novel, MK2 substrate-selective inhibitory mechanism of compounds is evaluated in enzyme assays that compare inhibitor potency in blocking p38/MK2 versus p38/PRAK induced phosphorylation of an HSP-27 derived peptide substrate. The ability of compounds to inhibit activated phospho-p38α is evaluated using a p38α/MK2 and a p38α/PRAK cascade assay format. The kinase activity of p38α is determined by its ability to phosphorylate and activate GST-MK2 or GST-PRAK. The kinase activity of activated MK2 and PRAK is followed by measuring the phosphorylation of a fluorescently-labeled, peptide substrate based on the sequence of Hsp27 (FITC-KKKALSRQLSVAA). The phosphorylation of the Hsp27 peptide is quantified using IMAP assay technology (Molecular Devices) and the Analyst HT plate reader (LJL Biosystems). Kinase reactions are carried out in a 384-well plate (Corning 3575) in 20 mM HEPES pH 7.5, 10 mM MgCl2, 0.0005% Tween-20, 0.01% BSA, 1 mM DTT, and 2% DMSO. The inhibitor concentration varies between 0.5-30,000 nM, while the Hsp27 peptide substrate and MgATP are held constant at 1 μM and 10 μM, respectively. Activated p38α is added to a final concentration of 20 pM for reactions with 1 nM nonphosphorylated 1 nM GST-MK2. For the p38α/PRAK cascade, unactivated GST-PRAK is held constant at 10 nM while p38α is added to a final concentration of […]. Kinase reactions are incubated at room temperature and quenched after 120 minutes by the addition of 1× Progressive Binding Buffer A containing 1×IMAP beads (IMAP FP Progressive Screening Express Kit, Molecular Devices Catalog Number R8127). Inhibitor potency is calculated by fitting dose-response data to the 4-parameter logistical IC50 equation. The substrate selectivity is calculated as a ratio of p38α/PRAK:p38α/MK2 IC50 values. A substrate selective inhibitor will have a p38α/PRAK:p38α/MK2 IC50 ratio of >2 while a classical p38 inhibitor will have a ratio of between 0.5-2. […] By way of example, the enhanced therapeutic benefit could be associated with a reduction in inhibition of p38 mediated anti-inflammatory functions, such as IL-10 production and TAB1 phosphorylation. An increased safety profile is expected based, for example, on a reduced inhibition of p38 substrates, such as PPARg and CDC25 phosphatase and PLA2 involved in gluconeogenesis and cell cycle regulation, respectively.

p38α/PRAK = p38α/PRAK (Homo sapiens, UniProt Q16539); assay: p38α/PRAK cascade assay (IMAP, Hsp27 peptide phosphorylation); assay type: biochemical; details: Hsp27 peptide 1 μM, MgATP 10 μM, 120 minutes, read-out: p38/PRAK IC50
Sequence of p38α/PRAK (Q16539 whole entry): as the sequence (Q16539 whole entry) above
Protocol: as §1

Compound | IC50 (TNFα) | IC50 (p38α/MK2) | Selectivity Ratio (p38α/MK2) | IC50 (p38α/PRAK)
Cc1nc(COc2nc(C)n(-c3cc(-c4ccnc(C(C)(C)O)n4)ccc3C)c(=O)c2Cl)co1 (racemic) [Example 8, 5-chloro-3-(5-(2-(2-hydroxypropan-2-yl)pyrimidin-4-yl)-2-methylphenyl)-2-methyl-6-((2-methyloxazol-4-yl)methoxy)pyrimidin-4(3H)-one] | 158 nM | 121 nM | 18.1 | 2190 nM
Cc1cccc(COc2nc(C)n(-c3cc(-c4ccnc(C(C)(C)O)n4)ccc3C)c(=O)c2Cl)n1 (racemic) [Example 14, 5-chloro-3-(5-(2-(2-hydroxypropan-2-yl)pyrimidin-4-yl)-2-methylphenyl)-2-methyl-6-((6-methylpyridin-2-yl)methoxy)pyrimidin-4(3H)-one] | 250 nM | 184 nM | 17.9 | 3300 nM
Cc1ccc(-c2ccnc(C(C)(C)O)n2)cc1-n1c(C)nc(OCc2ncc(F)cc2F)c(Cl)c1=O (racemic) [Example 19, 5-chloro-6-((3,5-difluoropyridin-2-yl)methoxy)-3-(5-(2-(2-hydroxypropan-2-yl)pyrimidin-4-yl)-2-methylphenyl)-2-methylpyrimidin-4(3H)-one] | 104 nM | 40 nM | 14.1 | 566 nM
Cc1nc(COc2nc(C)n(-c3cc(-c4ccnc(C(C)(C)O)n4)ccc3C)c(=O)c2Cl)co1 (single isomer, unassigned) [Example 10, (+)-5-chloro-3-(5-(2-(2-hydroxypropan-2-yl)pyrimidin-4-yl)-2-methylphenyl)-2-methyl-6-((2-methyloxazol-4-yl)methoxy)pyrimidin-4(3H)-one] |  | 19200 nM | >1.56 | 
Cc1cccc(COc2nc(C)n(-c3cc(-c4ccnc(C(C)(C)O)n4)ccc3C)c(=O)c2Cl)n1 (single isomer, unassigned) [Example 16, (+)-5-chloro-3-(5-(2-(2-hydroxypropan-2-yl)pyrimidin-4-yl)-2-methylphenyl)-2-methyl-6-((6-methylpyridin-2-yl)methoxy)pyrimidin-4(3H)-one] | 3560 nM | 5030 nM | >6.0 | 
Cc1ccc(-c2ccnc(C(C)(C)O)n2)cc1-n1c(C)nc(OCc2ccc(F)cc2F)c(Br)c1=O [Example 1, 5-bromo-6-((2,4-difluorobenzyl)oxy)-3-(5-(2-(2-hydroxypropan-2-yl)pyrimidin-4-yl)-2-methylphenyl)-2-methylpyrimidin-4(3H)-one] | 12 nM | 15 nM | 5.1 | 76 nM
Cc1ccc(-c2ccnc(C(C)(C)O)n2)cc1-n1c(C)nc(OCc2ccc(F)cc2F)c(Cl)c1=O [Example 2, 5-chloro-6-(2,4-difluoro-benzyloxy)-3-{5-[2-(1-hydroxy-1-methyl-ethyl)-pyrimidin-4-yl]-2-methyl-phenyl}-2-methyl-3H-pyrimidin-4-one] | 9.8 nM | 15 nM | 5.5 | 83 nM
Cc1ccc(-c2ccnc(C(C)(C)O)n2)cc1-n1c(C)nc(OCc2ccc(F)cc2)c(Cl)c1=O [Example 3, 5-chloro-6-((4-fluorobenzyl)oxy)-3-(5-(2-(2-hydroxypropan-2-yl)pyrimidin-4-yl)-2-methylphenyl)-2-methylpyrimidin-4(3H)-one] | 54 nM | 51 nM | 10.1 | 514 nM
Cc1cccc(COc2nc(C)n(-c3cc(-c4ccnc(C(C)(C)C)n4)ccc3C)c(=O)c2Cl)c1 [Example 4, 3-(5-(2-(tert-butyl)pyrimidin-4-yl)-2-methylphenyl)-5-chloro-2-methyl-6-((3-methylbenzyl)oxy)pyrimidin-4(3H)-one] | 101 nM | 1020 nM | 12.6 | 12900 nM
Cc1cccc(COc2nc(C)n(-c3cc(-c4ccnc(C(C)(C)O)n4)ccc3C)c(=O)c2Cl)c1 [Example 5, 5-chloro-3-(5-(2-(2-hydroxypropan-2-yl)pyrimidin-4-yl)-2-methylphenyl)-2-methyl-6-((3-methylbenzyl)oxy)pyrimidin-4(3H)-one] | 40 nM | 39 nM | 14.9 | 582 nM
COc1cccc(COc2nc(C)n(-c3cc(-c4ccnc(C(C)(C)C)n4)ccc3C)c(=O)c2Cl)c1 [Example 6, 3-[5-(2-tert-butyl-pyrimidin-4-yl)-2-methyl-phenyl]-5-chloro-6-(3-methoxy-benzyloxy) -2-methyl-3H-pyrimidin-4-one] | 270 nM | 1900 nM | 6.1 | 11600 nM
COc1cccc(COc2nc(C)n(-c3cc(-c4ccnc(C(C)(C)O)n4)ccc3C)c(=O)c2Cl)c1 [Example 7, 5-chloro-3-(5-(2-(2-hydroxypropan-2-yl)pyrimidin-4-yl)-2-methylphenyl)-6-((3-methoxybenzyl)oxy)-2-methylpyrimidin-4(3H)-one] | 94 nM | 62 nM | 24 | 1490 nM
Cc1nc(COc2nc(C)n(-c3cc(-c4ccnc(C(C)(C)O)n4)ccc3C)c(=O)c2Cl)co1 [Example 9, (−)-5-chloro-3-(5-(2-(2-hydroxypropan-2-yl)pyrimidin-4-yl)-2-methylphenyl)-2-methyl-6-((2-methyloxazol-4-yl)methoxy)pyrimidin-4(3H)-one] | 277 nM | 126 nM | 10.6 | 1330 nM
Cc1nc(COc2nc(C)n(-c3cc(-c4ccnc(C(C)(C)O)n4)ccc3C)c(=O)c2Br)cs1 [Example 11, 5-bromo-3-(5-(2-(2-hydroxypropan-2-yl)pyrimidin-4-yl)-2-methylphenyl)-2-methyl-6-((2-methylthiazol-4-yl)methoxy)pyrimidin-4(3H)-one] | 126 nM | 62 nM | 10.9 | 675 nM
Cc1ccc(-c2ccnc(C(C)(C)O)n2)cc1-n1c(C)nc(OCc2ncc(F)cc2F)c(Cl)c1=O [Example 20, (+)-5-chloro-6-((3,5-difluoropyridin-2-yl)methoxy)-3-(5-(2-(2-hydroxypropan-2-yl)pyrimidin-4-yl)-2-methylphenyl)-2-methylpyrimidin-4(3H)-one] |  | 5380 nM | 2.82 | 15200 nM
